# In patent US20250084453A1, “SYSTEMS, COMPOSITIONS AND METHODS FOR IDENTIFYING E3 LIGASE SUBSTRATES BY UBIQUITIN BIOTINYLATION” (The Broad Institute, Inc., priority 2022, published 2025):
# Key:
# GSPT1 = GSPT1 degradation by Western blot in HEK293T cells and CRBN-/- derivatives; assay type: cell-based, human
# Method: However, instead of assessing transiently-expressed V5-tagged IKZF1, an endogenous neo-substrate of CRBN, namely, GSPT1, was assessed. […] Following incubation with the components and added agents, the cells were lysed, and streptavidin-coated beads were used to capture from the cell lysate biotinylated, ubiquitinated proteins, e.g., the endogenous GSPT1 substrate. The biotinylated proteins eluted from the beads were subjected to Western blot analyses.
# CRBN E3 ligase = assay: MS comparison of loss-of-function CRBN-BirA mutants (D249Y, W386A) with WT CRBN-BirA under CC-885; assay type: cell-based, human; settings: CC-885 1 μM, 1 hour; D249Y and W386A; FIGS. 16A, 16B
# Method: Experiments were performed to identify substrates of an E3 ligase using CRBN as a representative E3 ligase. The experiments compared loss-of-function mutants of an E3 ligase (e.g., CRBN E3 ligase) to the wildtype (WT) ligase. FIGS. 16A and 16B show the results of a mass spectrometry experiment in which protein substrates susceptible to CC-885 induced ubiquitination were identified. These experiments were performed in HEK293T^CRBN−/− cells transiently expressing A3-HA-Ub and either WT CRBN-BirA or CRBN-BirA mutant D249Y (FIG. 16A) or CRBN-BirA mutant W386A (FIG. 16B). Compared with CRBN(WT), CRBN(D249Y) had decreased association with the CRL4 complex, while CRBN(W386A) had decreased affinity for CC-885. Both mutants were expected to have a diminished ability to ubiquitinate CC-885-induced substrates. While cultured in biotin-free medium, the cells were pre-treated with carfilzomib (carf; 0.4 μM) for 1 hour, and then were treated with the IMiD derivative CC-885 (1 μM) for another hour. […] Enrichment of biotinylated species by streptavidin-coated beads, protein digestion, and protein identification and quantification by mass spectrometry were performed exactly as described in Example 3 and 4. […]
smiles,measurement,setting,value
Cc1ccc(NC(=O)NCc2ccc3c(c2)CN(C2CCC(=O)NC2=O)C3=O)cc1Cl (centres unmarked) [CC-885],"GSPT1 degradation (Western blot, FIG. 5A)","GSPT1; 293T CRBN-/- CRBN-BirA cells with Avi-HA-Ub, 1 μM, 2 hours",degraded
same,GSPT1 degradation (Western blot),"GSPT1; 293T CRBN-/- cells expressing BirA-CRBN or CRBN-BirA, 1 μM, 4 hours",degraded
same,GSPT1 degradation (Western blot),"GSPT1; 293T CRBN-/- cells, 1 μM, 4 hours",not degraded
same,GSPT1 degradation (Western blot),"GSPT1; HEK293T cells, 10 nM, 100 nM, 1 μM or 10 μM for 3.5 hours",degraded in cells in a dose-dependent matter
same,Induced ubiquitinated substrates revealed by decreased biotinylation with CRBN-BirA mutants versus WT,CRBN E3 ligase,"GSPT1, GSPT2, VCL and CSNK1A1"
